Assay results as given in US20240027453A1, “METHOD FOR DETECTION AND QUANTITATIVE MONITORING OF INFECTIONS WITH HERPESVIRUSES” (The Trustees of Princeton University, priority 2020, published 2024).
Read-outs that look alike come from different tables or passages of the source.

System: HCMV
Type: cell-based
Conditions: for IRS1 (P09715) protein level / TRS1 (P09695) protein level / UL13 (P16755) protein level / UL36 (P16767) protein level / UL37 (P16778) protein level / UL122 (P19893) protein level / UL123 (P13202) protein level: IE
Procedure: In example herpesvirus PRM assay methods shown herein, cell pellets were lysed in 2% SDS, 100 mM NaCl, 0.5 mM EDTA, 50 mM Tris, pH 8.2, and 50 μg of protein was reduced and alkylated with 25 mM TCEP and 50 mM CAM respectively for 20 min at 70° C. Proteins were then precipitated via methanol chloroform precipitation (Wessel & Flugg, Anal Biochem. 138(1):141-143, 1984), resuspended in 50 mM HEPES, pH 8.2 and digested overnight with trypsin (50:1 protein:enzyme w/w ratio). Digested peptides were desalted by SDB-RPS StageTip as previously described (Lum et al., Cell Syst., 7(6):[…], 2018; Greco et al., Methods Mol Biol 1410:39-63, 2016; Federspiel & Cristea, Methods Mol Biol., 1977:115-143, 2019).
Peptides (1.0 μg on column) were analyzed by LC-MS/MS using a Dionex Ultimate 3000 UHPLC coupled online to an EASYSpray ion source and a Q Exactive HF. Peptides were separated on an EASYSpray C18 column (75 μm×25 cm) heated to 50° C. using a linear gradient of 5% B to 32% B over 60 min at a flow rate of 250 nL/min and were ionized at 1.7 kv. Mobile phase A consisted of 0.1% FA in H2O and mobile phase B consisted of 0.1% FA, 2.9% H2O in ACN.
The PRM method was controlled by a peptide inclusion list with retention time windows of 6 min for selected precursor ions.
The PRM assay was developed and analyzed using the open-source software Skyline (Maclean et al., Bioinformatics 26(7):966-968, 2010). Summed area under the curve of 3-4 transitions per peptide was used for quantitation. Targeted peptides were normalized to host protein loading control peptides. Peptide values for each sample were scaled to the average of each peptide across all runs. The average of multiple peptides was used as the inferred value for the protein measurement when more than one peptide was quantified (Federspiel et al., PLoS Biol. 17(9):e3000437. Doi: 10.1371/journal.pbio.3000437). PRM quantitation data were graphed using the Python Seaborn and Matplotlib libraries.
MRC5 primary human fibroblasts (HFs) (ATCC CCL-171) were used as the model system for HSV-1 and HCMV infections and were cultured in complete growth medium (DMEM supplemented with 10% fetal bovine serum and 1% penicillin-streptomycin antibiotics) at 37° C. and 5% CO2. iSLK.219 cells harboring latent KSHV (a gift from Dr. Britt Glaunsinger, University of California, Berkeley) were grown in complete growth medium supplemented with 500 μg/ml hygromycin (ThermoFisher Scientific, 10687010) at 37° C. and 5% CO2. All cells were used for experiments within a maximum of 10 passages.
Wild type HSV-1 strain 17+ (a gift from Beate Sodeik, Hannover Medical School, Hannover, Germany) was propagated as previously described (Diner et al., 2015). Briefly, PO stocks were generated by electroporating pBAC-HSV-1 into U-2 OS cells. […] In a similar manner, wild type HCMV strain AD169 was produced from BAC electroporation into HFs and working stocks were propagated by infecting HFs at a low level. In both cases, cell-associated virus was released by sonication, combined with supernatant virus, then concentrated by ultracentrifugation (20,000 rpm, 2 hours, 4° C. with SW28 swinging bucket rotor [Beckman Coulter]) over a 10% ficoll (HSV-1) or 20% sorbitol (HCMV) cushion. Virus stock titers were determined by plaque assay for HSV-1 or tissue culture infectious dose (TCID50) for HCMV and infections were performed at a multiplicity of infection (MOI) of 3.
12 hours prior to virus infection or reactivation, cells were treated with either the small molecule drug or DMSO/PBS control at an equivalent volume. […] For infection cycles lasting longer than 24 hours, small molecule drugs were re-added to the cell culture medium every 24 hours. Upon collection, cells were rinsed with PBS, scraped into a microcentrifuge tube, pelleted by centrifugation, and rinsed again with PBS.

## Nc1c(S(=O)(=O)c2ccccc2)c2nc3ccccc3nc2n1-c1ccc(F)cc1 [CAY10602]
Timepoint 48, DE
  UL102 (P16827) protein level: 0.7866
  UL104 (P16735) protein level: 0.07399
  UL112/UL113 (P17151) protein level: 0.423
  UL114 (P16769) protein level: 0.7709
  UL119/UL118 (P16739) protein level: 0.3402
  UL128 (P16837) protein level: 0.06729
  US8 (P09730) protein level: 0.8905
  US9 (P09729) protein level: 0.6117
  US12 (P09721) protein level: 0.9446
  US13 (P09720) protein level: 0.9123
  US14 (P09719) protein level: 0.1589
  US18 (P69334) protein level: 0.5367
  US22 (P09722) protein level: 0.542
  US23 (P09701) protein level: 0.4283
  US24 (P09700) protein level: 0.42
  US34 (P09709) protein level: 0.4118
  gB (P06473) protein level: 0.09671
Timepoint 48
  IRS1 (P09715) protein level: 0.5813
  TRS1 (P09695) protein level: 0.446
  UL13 (P16755) protein level: 0.4405
  UL36 (P16767) protein level: 0.9117
  UL37 (P16778) protein level: 0.7557
  UL122 (P19893) protein level: 0.05121
  UL123 (P13202) protein level: 0.5672
Timepoint 48, L
  CVC1 (P16799) protein level: 0.1115
  IR11 (P16809) protein level: 0.3707
  MCP (P16729) protein level: 0.006609
  SCP (Q7M6N6) protein level: 0.004793
  TRM2 (P16792) protein level: 0.05665
  UL22A (P16845) protein level: 0.1015
  UL25 (P16761) protein level: 0.0624
  UL29 (P16764) protein level: 0.7556
  UL30 (P16765) protein level: 0.1538
  UL31 (P16848) protein level: 0.1445
  UL43 (P16781) protein level: 0.04992
  UL52 (P16793) protein level: 0.05111
  UL80 (P16753) protein level: 0.03588
  UL82 (P06726) protein level: 0.1061
  UL88 (P16731) protein level: 0.08754
  UL94 (P16800) protein level: 0.07429
  UL99 (P13200) protein level: 0.05165
  UL103 (P16734) protein level: 0.1567
  UL117 (P16770) protein level: 0.383
  gH (P12824) protein level: 0.06336
  gL (P16832) protein level: 0.05192
  gM (P16733) protein level: 0.02415
  gN (P16795) protein level: 0.1118
Timepoint 48, LL
  DUT (P16824) protein level: 0.2582
  IR12 (P16810) protein level: 0.2908
  TRM3 (P16732) protein level: 0.01695
  TRX1 (P16783) protein level: 0.006112
  TRX2 (P16728) protein level: 0.006041
  UL24 (P16760) protein level: 0.1155
  UL40 (P16780) protein level: 0.63
  UL47 (P16784) protein level: 0.02023
  UL49 (P16786) protein level: 0.187
  UL69 (P16749) protein level: 0.1615
  UL70 (P17149) protein level: 0.3937
  UL83 (P06725) protein level: 0.02048
  UL132 (P69338) protein level: 0.09662
  US15 (P09718) protein level: 0.5168
Timepoint 72, DE
  CVC2 (P16726) protein level: 0.03983
  DBP (P17147) protein level: 0.391
  HELI (P16736) protein level: 0.5709
  IR01 (P09710) protein level: 0.2588
  NEC2 (P16791) protein level: 0.11
  RIR1 (P16782) protein level: 0.1099
  TRM1 (P16724) protein level: 0.1317
  UL4 (P17146) protein level: 0.06765
  UL26 (P16762) protein level: 0.1023
  UL32 (P08318) protein level: 0.02678
  UL34 (P16812) protein level: 0.09048
  UL35 (P16766) protein level: 0.02871
  UL38 (P16779) protein level: 0.5839
  UL44 (P16790) protein level: 0.07887
  UL48 (P16785) protein level: 0.0801
  UL54 (P08546) protein level: 0.6639
  UL71 (P16823) protein level: 0.3054
  UL78 (P16751) protein level: 0.3616
  UL84 (P16727) protein level: 0.08785
  UL95 (P16801) protein level: 0.157
  UL96 (P16787) protein level: 0.2632
  UL97 (P16788) protein level: 0.1687
  UL98 (P16789) protein level: 0.2967
  UL102 (P16827) protein level: 0.7626
  UL104 (P16735) protein level: 0.1005
  UL112/UL113 (P17151) protein level: 0.3808
  UL114 (P16769) protein level: 0.6517
  UL119/UL118 (P16739) protein level: 0.4195
  UL128 (P16837) protein level: 0.04728
  US8 (P09730) protein level: 0.5794
  US9 (P09729) protein level: 0.5649
  US12 (P09721) protein level: 0.4239
  US13 (P09720) protein level: 0.5351
  US14 (P09719) protein level: 0.1559
  US18 (P69334) protein level: 0.5415
  US22 (P09722) protein level: 0.4813
  US23 (P09701) protein level: 0.3933
  US24 (P09700) protein level: 0.3114
  US34 (P09709) protein level: 0.2066
  gB (P06473) protein level: 0.1022
Timepoint 72
  IRS1 (P09715) protein level: 0.5625
  TRS1 (P09695) protein level: 0.5284
  UL13 (P16755) protein level: 0.3604
  UL36 (P16767) protein level: 0.601
  UL37 (P16778) protein level: 0.719
  UL122 (P19893) protein level: 0.05427
  UL123 (P13202) protein level: 0.4451
Timepoint 72, L
  CVC1 (P16799) protein level: 0.09678
